# Laboratory results: PubChem BioAssay (NCI)
#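 In this assay, cells in 96-well plates receive the compound at five concentrations for 48 hours. Endpoints are linearly interpolated between the surrounding concentrations. GI50 marks 50% less growth. TGI denotes the concentration required for complete inhibition of growth.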
# Columns and labels:
# Test in all cases: NCI-60 cell line screen, 48 h
# [1] = system: 786-0 renal
# [2] = system: A498 renal
# [3] = system: A549 NSCLC
# [4] = system: ACHN renal
# [5] = system: BT-549 breast
# [6] = system: CCRF-CEM leukemia
# [7] = system: COLO 205 colon
# [8] = system: DU-145 prostate
# [9] = system: EKVX NSCLC
# [10] = system: HCC-2998 colon
# [11] = system: HCT-116 colon
# [12] = system: HCT-15 colon
# [13] = system: HL-60(TB) leukemia
# [14] = system: HOP-62 NSCLC
# [15] = system: HOP-92 NSCLC
# [16] = system: HS 578T breast
# [17] = system: HT29 colon
# [18] = system: IGROV1 ovarian
# [19] = system: K-562 leukemia
# [20] = system: KM12 colon
# [21] = system: LOX IMVI melanoma
# [22] = system: M14 melanoma
# [23] = system: MALME-3M melanoma
# [24] = system: MCF7 breast
# [25] = system: MDA-MB-231 breast
# [26] = system: MDA-MB-435
# [27] = system: MOLT-4 leukemia
# [28] = system: NCI-H226 lung
# [29] = system: NCI-H23 lung
# [30] = system: NCI-H460 lung
# [31] = system: NCI-H522 lung
# [32] = system: NCI/ADR-RES ovarian
# [33] = system: OVCAR-3 ovarian
# [34] = system: OVCAR-4 ovarian
# [35] = system: OVCAR-5 ovarian
# [36] = system: OVCAR-8 ovarian
# [37] = system: PC-3 prostate
# [38] = system: RPMI-8226 leukemia
# [39] = system: RXF 393 renal
# [40] = system: SF-268 CNS
# [41] = system: SF-295 CNS
# [42] = system: SF-539 CNS
# [43] = system: SK-MEL-2 melanoma
# [44] = system: SK-MEL-28 melanoma
# [45] = system: SK-MEL-5 melanoma
# [46] = system: SK-OV-3 ovarian
# [47] = system: SN12C renal
# [48] = system: SNB-19 CNS
# [49] = system: SNB-75 CNS
# [50] = system: SR leukemia
# [51] = system: SW-620 colon
# [52] = system: T-47D breast
# [53] = system: TK-10 renal
# [54] = system: U251 CNS
# [55] = system: UACC-257 melanoma
# [56] = system: UACC-62 melanoma
# [57] = system: UO-31 renal
# [58] = system: CAKI-1 renal
smiles,measurement,setting,value
CC1(C)OC2C(CO[Si](C)(C)C(C)(C)C)OC(n3c(I)c(C#C[Si](C)(C)C)c(=O)[nH]c3=O)C2O1 (centres undefined),GI50,[1],13.1 µM
same,TGI,[1],26.8 µM
same,GI50,[2],32.2 µM
same,TGI,[2],> 100 µM
same,GI50,[3],> 100 µM
same,TGI,[3],> 100 µM
same,GI50,[4],12.9 µM
same,TGI,[4],26.4 µM
same,GI50,[5],13.2 µM
same,TGI,[5],32.1 µM
same,GI50,[6],2.67 µM
same,TGI,[6],11 µM
same,GI50,[7],1.59 µM
same,TGI,[7],2.94 µM
same,GI50,[8],13 µM
same,TGI,[8],25.6 µM
same,GI50,[9],59.6 µM
same,TGI,[9],> 100 µM
same,GI50,[10],4.52 µM
same,TGI,[10],17.7 µM
same,GI50,[11],1.66 µM
same,TGI,[11],3.37 µM
same,GI50,[12],2.39 µM
same,TGI,[12],15.4 µM
same,GI50,[13],2.35 µM
same,TGI,[13],15.2 µM
same,GI50,[14],> 100 µM
same,TGI,[14],> 100 µM
same,GI50,[15],0.0445 µM
same,TGI,[15],14.1 µM
same,GI50,[16],16.8 µM
same,TGI,[16],51.1 µM
same,GI50,[17],5.01 µM
same,TGI,[17],23.7 µM
same,GI50,[18],7.87 µM
same,TGI,[18],21.5 µM
same,GI50,[19],1.61 µM
same,TGI,[19],3.89 µM
same,GI50,[20],23.2 µM
same,TGI,[20],92.7 µM
same,GI50,[21],3.01 µM
same,TGI,[21],11.1 µM
same,GI50,[22],13.4 µM
same,TGI,[22],28.1 µM
same,GI50,[23],4.62 µM
same,TGI,[23],18.6 µM
same,GI50,[24],11.2 µM
same,TGI,[24],24.3 µM
same,GI50,[25],4.22 µM
same,TGI,[25],17 µM
same,GI50,[26],15.7 µM
same,TGI,[26],44.3 µM
same,GI50,[27],1.47 µM
same,TGI,[27],3.54 µM
same,GI50,[28],17 µM
same,TGI,[28],34 µM
same,GI50,[29],18.2 µM
same,TGI,[29],50.9 µM
same,GI50,[30],16.8 µM
same,TGI,[30],34.2 µM
same,GI50,[31],1.38 µM
same,TGI,[31],2.74 µM
same,GI50,[32],20.4 µM
same,TGI,[32],58.3 µM
same,GI50,[33],1.81 µM
same,TGI,[33],3.54 µM
same,GI50,[34],16.1 µM
same,TGI,[34],31.8 µM
same,GI50,[35],18.7 µM
same,TGI,[35],42.8 µM
same,GI50,[36],12.5 µM
same,TGI,[36],45.8 µM
same,GI50,[37],2.04 µM
same,TGI,[37],4.13 µM
same,GI50,[38],2.4 µM
same,TGI,[38],8.6 µM
same,GI50,[39],2.51 µM
same,TGI,[39],9.1 µM
same,GI50,[40],11.4 µM
same,TGI,[40],28.2 µM
same,GI50,[41],> 100 µM
same,TGI,[41],> 100 µM
same,GI50,[42],15.4 µM
same,TGI,[42],28.9 µM
same,GI50,[43],3.78 µM
same,TGI,[43],16.7 µM
same,GI50,[44],1.83 µM
same,TGI,[44],3.56 µM
same,GI50,[45],13.4 µM
same,TGI,[45],26.2 µM
same,GI50,[46],> 100 µM
same,TGI,[46],> 100 µM
same,GI50,[47],15.1 µM
same,TGI,[47],37.5 µM
same,GI50,[48],> 100 µM
same,TGI,[48],> 100 µM
same,GI50,[49],36.7 µM
same,TGI,[49],> 100 µM
same,GI50,[50],1.42 µM
same,TGI,[50],4.3 µM
same,GI50,[51],1.69 µM
same,TGI,[51],3.21 µM
same,GI50,[52],10.5 µM
same,TGI,[52],26.4 µM
same,GI50,[53],6.44 µM
same,TGI,[53],20 µM
same,GI50,[54],19.4 µM
same,TGI,[54],65.7 µM
same,GI50,[55],13.3 µM
same,TGI,[55],30.1 µM
same,GI50,[56],21.5 µM
same,TGI,[56],50.5 µM
same,GI50,[57],2.63 µM
same,TGI,[57],10.4 µM
Cc1nc(Nc2cccnc2)sc1C(=O)/C=C/c1ccc(F)cc1,GI50,[1],2.94 µM
same,TGI,[1],19.4 µM
same,GI50,[2],7.61 µM
same,TGI,[2],42.7 µM
same,GI50,[3],3.15 µM
same,TGI,[3],> 100 µM
same,GI50,[5],2.83 µM
same,TGI,[5],8.87 µM
same,GI50,[58],3.39 µM
same,TGI,[58],13.6 µM
same,GI50,[6],1.4 µM
same,TGI,[6],24.7 µM
same,GI50,[7],2.81 µM
same,TGI,[7],8.86 µM
same,GI50,[8],3.48 µM
same,TGI,[8],14.8 µM
same,GI50,[9],5.15 µM
same,TGI,[9],> 100 µM
same,GI50,[10],4.09 µM
same,TGI,[10],15.5 µM
same,GI50,[11],1.64 µM
same,TGI,[11],4.18 µM
same,GI50,[12],2.14 µM
same,TGI,[12],10.2 µM
same,GI50,[14],2.61 µM
same,TGI,[14],7.6 µM
same,GI50,[15],3.1 µM
same,TGI,[15],9.98 µM
same,GI50,[16],4.05 µM
same,TGI,[16],> 100 µM
same,GI50,[17],2.76 µM
same,TGI,[17],10.1 µM
same,GI50,[18],2.85 µM
same,TGI,[18],> 100 µM
same,GI50,[19],2.78 µM
same,TGI,[19],> 100 µM
same,GI50,[20],2.04 µM
same,TGI,[20],4.61 µM
same,GI50,[21],2.36 µM
same,TGI,[21],6.52 µM
same,GI50,[22],3.02 µM
same,TGI,[22],12.9 µM
same,GI50,[23],5.55 µM
same,TGI,[23],40 µM
same,GI50,[24],2.29 µM
same,TGI,[24],> 100 µM
same,GI50,[25],4.03 µM
same,TGI,[25],> 100 µM
same,GI50,[26],2.71 µM
same,TGI,[26],11.2 µM
same,GI50,[27],3.2 µM
same,TGI,[27],> 100 µM
same,GI50,[29],3.93 µM
same,TGI,[29],20.7 µM
same,GI50,[30],2.68 µM
same,TGI,[30],6.9 µM
same,GI50,[31],2.17 µM
same,TGI,[31],5.11 µM
same,GI50,[32],3.24 µM
same,TGI,[32],> 100 µM
same,GI50,[33],3.14 µM
same,TGI,[33],12.8 µM
same,GI50,[34],4.29 µM
same,TGI,[34],> 100 µM
same,GI50,[35],2.78 µM
same,TGI,[35],23 µM
same,GI50,[36],3.92 µM
same,TGI,[36],> 100 µM
same,GI50,[37],4.07 µM
same,TGI,[37],20.1 µM
same,GI50,[38],2.69 µM
same,TGI,[38],15.2 µM
same,GI50,[39],3.01 µM
same,TGI,[39],8.31 µM
same,GI50,[40],3.57 µM
same,TGI,[40],31.9 µM
same,GI50,[41],3.09 µM
same,TGI,[41],18.2 µM
same,GI50,[42],2.46 µM
same,TGI,[42],7.26 µM
same,GI50,[43],2.86 µM
same,TGI,[43],9.03 µM
same,GI50,[44],3.72 µM
same,TGI,[44],21.4 µM
same,GI50,[45],3.64 µM
same,TGI,[45],13.4 µM
same,GI50,[46],3.85 µM
same,TGI,[46],> 100 µM
same,GI50,[47],3.17 µM
same,TGI,[47],> 100 µM
same,GI50,[48],3.34 µM
same,TGI,[48],15.9 µM
same,GI50,[49],3.42 µM
same,TGI,[49],67.1 µM
same,GI50,[50],1.69 µM
same,TGI,[50],> 100 µM
same,GI50,[51],2.46 µM
same,TGI,[51],6.46 µM
same,GI50,[52],2.25 µM
same,TGI,[52],> 100 µM
same,GI50,[53],2.98 µM
same,TGI,[53],> 100 µM
same,GI50,[54],2.95 µM
same,TGI,[54],8.83 µM
same,GI50,[55],5.87 µM
same,TGI,[55],28.6 µM
same,GI50,[56],1.99 µM
same,TGI,[56],4.99 µM
same,GI50,[57],2.81 µM
same,TGI,[57],16.9 µM
